Patent US10092574B2, “Inhibitors of polynucleotide repeat-associated RNA foci and uses thereof” (VALORISATION-RECHERCHE, LIMITED PARTNERSHIP, priority 2013, dated 2018)
Entries after “also recorded” stand apart in the source; their conditions may differ.

What was measured:
Type in all cases: cell-based, human
[1] = test system: Normal or DM1 myoblasts; assay: Cytotoxicity assay (Hoescht 33342 / propidium iodide, High Content Screening microscope); conditions: for cellular toxicity: 7 days (FIG. 10)
Experimental: The cellular toxicity of compounds 15 and 32, and their analogs was also measured using a validated cytotoxicity assay. Normal or DM1 myoblasts were treated with 20 μM of compound or DMSO. The ratio of viable cells was measured with a High Content Screening microscope in live cells treated with Hoescht 33342 (labels all cells) and propidium iodide (labels dead cells). The total number of cells was counted and the number of dead cells was subtracted to obtain the number of viable cells, which is presented as a ratio (drug-treated versus DMSO-treated cells). The percentage of dead cells was also measured using propidium iodide.
The cellular toxicity of the compounds was also measured in a dose-response assay. In this assay, normal (M908) and patient (DM1) myoblasts were treated for 7 days with compound 32 or 196 at concentrations varying from 5 to 60 μM. Cell number and cell death was quantified by High Content Screening microscope, as specified above. […] Indeed, the ratio of viable cells at 20 μM of compound 15 is 0.22 (FIG. 10), while for compound 196, an analogue of compound 15, it is above 1 at the same concentration (FIG. 14C).

[2] = test system: MBNL2, MBNL1, Sercal and TNNT2 pre-mRNAs; assay: Splicing assays on the panel of MBNL2, MBNL1, Sercal and TNNT2 pre-mRNAs in DM1 myoblasts; conditions: 20 μM, 7 days (FIG. 11)
Experimental: Human myoblasts were obtained from the Myosix institute associated with the Association Frangaise contre les Myopathies (AFM). Five primary myoblast lines were obtained as controls, and one line from a DM1 patient with a 3.8 Kb CTG triplet amplification corresponding to approximately 1250 CTG repeats. The human myoblasts are cultivated in HAM-F10 media (SIGMA N6635) with 15% FBS, 1% chick embryo extract, and 390 ng/ml of dexamethasone. One day before adding compounds, 2×10^5 cells were plated in 100 mm plates (for CUGBP1 western blot or RT-PCR alternative splicing assay) or 2×10^4 cells/well are seeded in 12-well plates containing 12 mm round glass coverslips (for FISH to detect RNA foci). […]
For Western blots, CUGBP1 was detected with the 3B1-3D11 monoclonal antibody (mAb) (SIGMA C5112) and GAPDH was detected with the 6C5 mAb (Millipore MAB374). The enhanced chemiluminescence signal (ECL) was acquired and quantified with the ChemiDoc™ MP imaging system (Bio-Rad). […] The alternative splicing of the hnRNPA2/B1 transcript was detected with the primers 5′-[…]-3′ (SEQ ID NO:7) and 5′-[…]-3′ (SEQ ID NO:8). PCR was performed with Taq using standard conditions but the number of amplification cycles was optimized to be in the quantitative range for each gene. […]

[3] = test system: CUGBP1; assay: Western blot of CUGBP1 protein levels in myoblasts; conditions: DM1 myoblasts, 20 μM, 7 days (FIG. 7)
Experimental: Human myoblasts were obtained from the Myosix institute associated with the Association Frangaise contre les Myopathies (AFM). Five primary myoblast lines were obtained as controls, and one line from a DM1 patient with a 3.8 Kb CTG triplet amplification corresponding to approximately 1250 CTG repeats. The human myoblasts are cultivated in HAM-F10 media (SIGMA N6635) with 15% FBS, 1% chick embryo extract, and 390 ng/ml of dexamethasone. One day before adding compounds, 2×10^5 cells were plated in 100 mm plates (for CUGBP1 western blot or RT-PCR alternative splicing assay) or 2×10^4 cells/well are seeded in 12-well plates containing 12 mm round glass coverslips (for FISH to detect RNA foci). One day after plating, media is replaced with fresh media containing the compounds at the desired concentration in this manner: the media is put in a screw-cap tube and heated at 37° C. The 20 mM compound stock in 100% DMSO is pipetted directly into the media and the tube is mixed well by inversion and gentle vortexing, and immediately overlayed on the cells. Pure DMSO is used for the control cells. Final concentrations on myoblasts are never higher than 0.5%. This procedure is repeated twice during the seven days of treatment, the media is thus replaced with fresh media containing compound every 2-3 days. Cells are collected or fixed for FISH after one week.
For Western blots, CUGBP1 was detected with the 3B1-3D11 monoclonal antibody (mAb) (SIGMA C5112) and GAPDH was detected with the 6C5 mAb (Millipore MAB374). The enhanced chemiluminescence signal (ECL) was acquired and quantified with the ChemiDoc™ MP imaging system (Bio-Rad). For alternative splicing assays, total RNA was collected with Trizol™ (Invitrogen), and 1 μg was used for reverse transcription with random primers with the RevertAid™ H Minus M-MuL RT (Fermentas) according to manufacturer's instructions. For MBNL2, PCR amplification was performed with primers 5′-[…]-3′ (SEQ ID NO:1) and 5′-[…]-3′ (SEQ ID NO:2). SERCA1 was amplified with primers 5′-[…]-3′ (SEQ ID NO:3) and 5′-[…]-3′ (SEQ ID NO:4). For TNNT2 (cardiac Troponin T), PCR was carried out with primers 5′-[…]-3′ (SEQ ID NO:5) and 5′-[…]-3′ (SEQ ID NO:6). The alternative splicing of the hnRNPA2/B1 transcript was detected with the primers 5′-[…]-3′ (SEQ ID NO:7) and 5′-[…]-3′ (SEQ ID NO:8). PCR was performed with Taq using standard conditions but the number of amplification cycles was optimized to be in the quantitative range for each gene. The products of PCR amplification were resolved on 3.5% agarose gels containing Gelred™ (Biotium) and images were acquired and quantified with the ChemiDoc™ MP imaging system (Bio-Rad). […]

Compound: CCC(C(=O)Nc1ccc(S(=O)(=O)NC23CC4CC(CC(C4)C2)C3)cc1)c1ccccc1 (stereo not shown) [Compound 31]
- cellular toxicity ([1]; 20 μM): exhibits cellular toxicity; also recorded: some toxicity

Compound: CCCN(CCC)S(=O)(=O)c1ccc(NC(=O)c2cnn(-c3ccccc3)c2C)cc1 [Compound 196, N-(4-(N,N-Dipropylsulfamoyl)phenyl)-5-methyl-1-phenyl-1H-pyrazole-4-carboxamide]
- ratio of viable cells (drug-treated versus DMSO-treated) ([1]; 20 μM, 7 days (FIG. 10, FIG. 14C)): above 1
- main phenotype at higher concentrations ([1]; normal (M908) and DM1 myoblasts, 7 days, 5 to 60 μM): cytostatic effect
- cytotoxicity in dose-response assay ([1]; normal (M908) and DM1 myoblasts, 7 days, concentration of 20 μM and below (FIGS. 14A-D)): little cytotoxicity
- correction of mis-splicing of all the pre-mRNAs tested [2]: significantly corrects mis-splicing of all the pre-mRNAs tested

Compound: Cc1c(C(=O)N(Cc2ccccc2)Cc2cccs2)cnn1-c1ccc(Cl)cc1 [Compound 46]
- cellular toxicity ([1]; 20 μM): little toxicity

Compound: CCCc1c(C(=O)N2CCC(c3ccccc3OC)CC2)cnn1-c1ccccc1 [Compound 43]
- reduction of CUGBP1 levels [3]: 45%
